Source: US11596629B2, “Compounds and methods for treating cancer” (Mayo Foundation for Medical Education and Research, priority 2017, dated 2023)
“Also recorded” adds a separate entry of the source.

Tests used:
TUBO tumors [1] = assay: TUBO HER2-positive tumors, SSI-4, PD-1 blockade and combination, CD8 depletion; settings: SSI-4 monotherapy
Experimental: Materials and methods: The checkpoint inhibitor used was a mouse anti-PD-1 that was purchased from BioXCell (catalog #BE0146). The checkpoint inhibitor was administered at 100 μg/dose (5 mg/kg) by intraperitoneal (IP) injection.
(§3) To negate the effects of PD-L1 upregulation, the combination of PD-1 antibody-mediated blockade, the receptor for PD-L1, and SSI-4, was tested.

OT-II CD4 T cells = assay: OT-II CD4 T cell proliferation in co-culture; type: cell-based; settings: for OT-II CD4 T cell proliferation: SSI-4 1000 nM
[2] = system: live tumor cells (HER2-positive and TNBC breast cancer); assay: Plasma membrane translocation of calreticulin, flow cytometry on live tumor cells; type: cell-based, murine; settings: 48 hour treatment
Experimental: Significance shown for 1000 nM dose (anova).
(§1) SSI-4 induces ER stress in tumor cells. […] ER stress can provoke a therapeutically relevant adaptive immune response against malignant cells through the emission of immunostimulatory signals, or damage-associated molecular patterns (DAMPs) such as heat shock proteins and translocation of calreticulin (CRT) to the plasma membrane (17). In particular, phosphorylation of eIF2a has been reported to mediate CRT translocation (20) which is correlated with the induction of immunogenic cell death (ICD) and favorable disease outcome in a variety of malignancies (17).

[3] = system: 4T1 TNBC breast cancer cells; assay: Tumor cell phagocytosis in vitro; type: cell-based; settings: 4T1 cells
[4] = system: E0771 TNBC breast cancer cells; assay: Tumor cell phagocytosis in vitro; type: cell-based
Experimental: (§2) CRT behaves as a pro-phagocytic signal. The effect of SSI-4 treatment on tumor cell phagocytosis by bone marrow-derived macrophages (BMDM) in vitro was determined. SSI-4 (1000 nM) induced the highest level of phagocytosis in both TUBO and E0771-E2 cells (5 and 13%, respectively) (FIG. 2a). […] Downstream activation of T lymphocytes is dependent on the successful maturation and presentation of antigen by antigen-presenting cells such as macrophages (Woo 2015). SSI-4 driven activation of BMDMs in vitro was evaluated by measuring antigen presentation of chicken ovalbumin (cOva) by MHC class I receptors on BMDM after co-culturing them with cOva-expressing tumor cells. […] CD8+ T lymphocyte activation was evaluated in vitro using splenic T cells derived from OT-I transgenic mice which recognize ovalbumin residues 257-264 in the context of H2Kb. Proliferation and interferon gamma (IFNγ) production was measured in T lymphocytes co-cultured with both cOva-expressing tumor cells and BMDM treated with SSI-4. In addition, in order to evaluate whether the effects of SSI-4 on T lymphocyte activation were direct or mediated through a tumor-specific mechanism, concurrent analysis in SSI-4 treated T lymphocytes alone and T lymphocytes co-cultured with BMDM only was performed.

OT-I CD8 T cells = assay: CD8+ T lymphocyte activation in vitro (proliferation, IFNγ) in co-culture with cOva-expressing tumor cells and BMDM; type: cell-based, mice; settings: for interferon gamma (IFNγ) production in OT-I CD8 T cells / OT-I CD8 T cell proliferation: SSI-4 1000 nM
Experimental: as §2

E0771-E2 tumors = assay: E0771-E2 tumor bearing mice, SSI-4, PD-1 blockade and combination
Experimental: The checkpoint inhibitor was administered at 100 μg/dose (5 mg/kg) by intraperitoneal (IP) injection.
as §3
Tumor-infiltrating (TI) leukocytes and lymphocytes were assessed by multicolor flow cytometry on dissociated treated tumor tissue extracted from E0771-E2 bearing mice on day 27 of the study. […] 5G: To determine whether anti-tumor activity of SSI-4/PD-1 combination therapy is dependent on cytotoxic CD8 T lymphocyte activity, CD8 depletion studies were performed in mice receiving either placebo or combination therapy.

[5] = system: TUBO, E0771-E2, and N202 tumor cells; assay: ER stress activation in tumor cells (p-eIF2α Ser51, CHOP levels); type: cell-based, murine; settings: SSI-4 10-1000 nM
Excerpt: as §1

E0771-E2 cells [6] = assay: Antigen presentation of cOva by MHC class I on BMDM co-cultured with cOva-expressing tumor cells; type: cell-based, murine
Experimental: as §2

TUBO cells [7] = assay: as above; type: cell-based, murine
Experimental: as §2

TUBO tumors [8] = assay: TUBO orthotopic mammary fat pad tumors, SSI-4 monotherapy; type: in vivo, BALB/c mice
Experimental: SSI-4 mediated immunomodulation in vivo was evaluated. TUBO cells were injected orthotopically into the mammary fat pad of BALB/c mice. Animals received either sham or SSI-4 (180 mg/kg) orally (continuous) when tumor burden reached 50-100 mm^3. […] Tumor tissue was harvested 14 days after treatment onset for analysis.
As SSI-4 treatment of tumor cells enhances the antigen presenting capabilities of APCs in vitro, tumor-associated recruitment of professional phagocytes in vivo including macrophages (MP) and dendritic cells (DC) was evaluated. The ratio of tumor leukocyte recruitment by comparing the ratio of cluster of differentiation 45 antigen (CD45) positive to negative cells sorted from dissociated tumor tissue within control and SSI-4 treated mice was determined. Results indicated a 10% increase in the number of tumor-associated leukocytes within SSI-4 treated animals (FIG. 3f). Next, tumor sections were stained for F4/80, a macrophage (MP) marker. […] To determine intra-tumor dendritic cell infiltration, tumors were dissociated and analyzed via flow cytometry for DCs based on CD45^+MHCII^+CD11c^hi expression. […] As tumor-associated macrophage (TAM) cells can be correlated with either a tumor-suppressive or pro-inflammatory phenotype, we sorted this population identified by MHCII^+CD11c^loF4/80^+ based on the polarization markers interleukin-1β (IL-1β) and IL-10, comparing the expression profiles from both treatment groups as well as mammary tissue extracted from non-tumor bearing mice.
SSI-4 mediated APC activation could augment T lymphocyte infiltration and activation. […] The maturation status of T lymphocytes from CD3+ cells isolated from the spleen of treated animals by comparing the ratio of CD44 to CD62L expression in either CD4 or CD8 T-cells was examined. […] The activation status of T lymphocytes isolated from digested tumors was also assessed. […] Granzyme B-positive CD8 T-cells were also enriched in SSI-4 treated tumors (FIG. 4f), another marker for activated CD8+ T lymphocytes.

E0771-E2 cells [9] = assay: Tumor cell phagocytosis by bone marrow-derived macrophages (BMDM) in vitro; type: cell-based, murine
Experimental: as §2

TUBO cells [10] = assay: as above; type: cell-based, murine
Experimental: as §2

[11] = SSI-4 treated T lymphocytes alone or T lymphocyte-BMDM co-cultures
[12] = splenic CD3+ cells, CD44 to CD62L
[13] = tumor tissue 14 days after treatment onset

Structure (SMILES): CNC(=O)c1ccnc(NC(=O)N2CCC(Oc3ccccc3Cl)CC2)c1 [SSI-4, 2-{[4-(2-Chlorophenoxy)piperidine-1-carbonyl]amino}-N-methylpyridine-4-carboxamide]
- improved median survival compared to PD-1 monotherapy (TUBO tumors [1]): ~35%
- improved median survival compared to sham (TUBO tumors [1]): approximately 37%
- SSI-4 enhanced OT-II CD4 T cell proliferation with adjuvant CRT neutralization (OT-II CD4 T cells; E0771-E2): inhibited
- SSI-4 enhanced OT-II CD4 T cell proliferation with adjuvant CRT neutralization (OT-II CD4 T cells; MMTV-neu): inhibited
- OT-II CD4 T cell proliferation (OT-II CD4 T cells; E0771-E2): significantly enhanced
- OT-II CD4 T cell proliferation (OT-II CD4 T cells; MMTV-neu): significantly enhanced
- plasma membrane translocation/expression of calreticulin (CRT) ([2]; 10 nM, flow cytometry on live tumor cells): induces plasma membrane translocation of calreticulin; also recorded: potently upregulates plasma membrane expression of CRT
- plasma membrane translocation of calreticulin ([2]; 10-1000 nM, HER2-positive and TNBC breast cancer cells, significance shown for 1000 nM): induces plasma membrane translocation of calreticulin
- SSI-4 induced phagocytosis with adjuvant CRT neutralization [3]: reversed
- level of phagocytosis ([3]; SSI-4 1000 nM): 12.5%
- SSI-4 induced phagocytosis with adjuvant CRT neutralization [4]: reversed
- level of phagocytosis ([4]; SSI-4 1000 nM): 9.4%
- SSI-4 enhanced IFNγ production with CRT neutralization (OT-I CD8 T cells; E0771-E2 cells): mild (n.s.) decrease
- SSI-4 enhanced OT-I CD8 T cell proliferation with adjuvant CRT neutralization (OT-I CD8 T cells; E0771-E2 cells): inhibited
- SSI-4 enhanced IFNγ production with adjuvant CRT neutralization (OT-I CD8 T cells; MMTV-neu cells): inhibited; also recorded: abrogate
- SSI-4 enhanced OT-I CD8 T cell proliferation with adjuvant CRT neutralization (OT-I CD8 T cells; MMTV-neu cells): inhibited; also recorded: abrogate
- interferon gamma (IFNγ) production in OT-I CD8 T cells (OT-I CD8 T cells; triple culture with E0771-E2): significantly enhanced; also recorded: potently induce
- OT-I CD8 T cell proliferation (OT-I CD8 T cells; triple culture with E0771-E2 tumor cells and macrophages): significantly enhanced; also recorded: potently induce
- interferon gamma (IFNγ) production in OT-I CD8 T cells (OT-I CD8 T cells; triple culture with MMTV-neu): significantly enhanced; also recorded: potently induce
- OT-I CD8 T cell proliferation (OT-I CD8 T cells; triple culture with MMTV-neu tumor cells and macrophages): significantly enhanced; also recorded: potently induce
- IFNγ production without tumor cells (OT-I CD8 T cells; [11]): No significant changes
- T lymphocyte proliferation without tumor cells (OT-I CD8 T cells; [11]): could not induce T cell proliferation; also recorded: No significant changes
- T cell proliferation with tumor cells bearing empty vector (EV), no cOVA antigen (OT-I CD8 T cells; SSI-4 treatment): could not similarly stimulate T cell proliferation
- programmed death ligand-1 (PD-L1) expression in tumor (E0771-E2 tumors; EO771-E2 tumor bearing mice): induces
- protein expression of PD-L1 in tumor-infiltrating dendritic and macrophage cells (E0771-E2 tumors; FIG. 25): significant changes
- improved median survival compared to PD-1 monotherapy (E0771-E2 tumors; SSI-4 monotherapy): ~20%
- improved median survival compared to sham (E0771-E2 tumors; SSI-4 monotherapy): approximately 22%
- effector/cytotoxic CD8+ T lymphocytes in tumor (E0771-E2 tumors; dissociated tumors): increased; also recorded: significant increase
- increase of intratumor infiltration of macrophages (E0771-E2 tumors; flow cytometry, day 27): approximately 8%
- protein expression of checkpoints PD-L1 or PD-L2 in dendritic cells (E0771-E2 tumors; intratumor dendritic cells): No significant changes
- PD-L1 expression on macrophages (E0771-E2 tumors; intratumor macrophages): increased PD-L1; also recorded: strongly induce PD-L1 expression on macrophages
- intratumor population of T regulatory cells (E0771-E2 tumors; mouse, in vivo): deleterious effect
- tumor infiltrating macrophages (E0771-E2 tumors; mouse, in vivo): increased the number of tumor infiltrating macrophages; also recorded: significant influx
- checkpoint protein expression (CTLA-4, TIM3) on CD4 and CD8 positive T lymphocytes (E0771-E2 tumors; tumor-infiltrating T lymphocytes): upregulation of both CTLA-4 and TIM-3
- activation of ER stress (phosphorylated eIF2α at serine51 and CHOP levels) [5]: activation of ER stress
- SSI-4 enhanced antigen presentation with adjuvant CRT neutralization (E0771-E2 cells [6]): inhibited
- antigen presentation (E0771-E2 cells [6]; SSI-4 100 nM): 5%
- antigen presentation (E0771-E2 cells [6]; SSI-4 1000 nM): 5%
- SSI-4 enhanced antigen presentation with adjuvant CRT neutralization (TUBO cells [7]): inhibited
- antigen presentation (TUBO cells [7]; SSI-4 100 nM): 8.5%
- antigen presentation (TUBO cells [7]; SSI-4 1000 nM): 8.5%
- number of CD4+ tumor-infiltrating populations (TUBO tumors [8]; IHC of tumor sections): significant increase
- number of CD8+ tumor-infiltrating populations (TUBO tumors [8]; IHC of tumor sections): significant increase
- programmed death ligand-1 (PD-L1) expression in tumor (TUBO tumors [8]; IHC of tumor sections, TUBO tumor bearing mice): induces
- pro-inflammatory cytokine (IL-1β) expression in tumor-associated macrophages (TUBO tumors [8]; MHCII+CD11cloF4/80+ cells): increased expression of pro-inflammatory cytokines; also recorded: significant increase in IL-1β
- overall survival (TUBO tumors [8]; SSI-4 180 mg/kg orally (continuous) vs sham): appreciable increase in overall survival
- tumor progression (TUBO tumors [8]; SSI-4 180 mg/kg orally (continuous) vs sham, 180 mg/kg): slower tumor progression; also recorded: tumor progression invariably occurred
- tumor sizes at 30 days after onset of therapy (TUBO tumors [8]; SSI-4 180 mg/kg orally (continuous), when control animals reached endpoint): markedly smaller tumor sizes
- effector CD4 and CD8 T lymphocytes identified by IFNγ (TUBO tumors [8]; T lymphocytes from digested tumors): markedly increased
- increase in the number of tumor-associated leukocytes (CD45) (TUBO tumors [8]; dissociated tumor tissue, SSI-4 vs control): 10%
- number of intra-tumor dendritic cells (TUBO tumors [8]; flow cytometry CD45+MHCII+CD11chi, vs control treated tumors and normal mammary tissue): significant increase
- perforin in tumors (TUBO tumors [8]; mouse, in vivo): significant increase in perforin
- naïve T-cell numbers (TUBO tumors [8]; spleen): concomitant decrease
- memory and effector T-cells among CD4 positive T cell populations (TUBO tumors [8]; [12]): robust induction
- memory and effector T-cells among CD8 positive T cell populations (TUBO tumors [8]; [12]): robust induction
- intra-tumor penetration of macrophages (F4/80) (TUBO tumors [8]; tumor sections): increased intra-tumor penetration
- macrophages, positive F4/80 IHC staining (TUBO tumors [8]; tumor sections): 43.3±8.6 % pop.
- Ki-67 protein staining (TUBO tumors [8]; tumor sections, sham 47.7±6.4): 36.7±6.2 %+nuclei
- cleaved caspase 3 (CC3) staining, H (TUBO tumors [8]; tumor sections, sham H=4.9±2.6): 10.7±3.9
- cleaved caspase 3 (CC3) staining (TUBO tumors [8]; [13]): significant increase
- proliferative capacity of tumors via nuclear Ki67 staining (TUBO tumors [8]; [13]): significant reduction in the proliferative capacity
- Granzyme B-positive CD8 T-cells (TUBO tumors [8]; tumors): enriched
- number of intra-tumor T regulatory cells (dual CD25 and FoxP3 expression) (TUBO tumors [8]; tumors): significantly reduced; also recorded: profound decrease
- SSI-4 induced phagocytosis with adjuvant CRT neutralization (E0771-E2 cells [9]; CRT blocking antibody): reversed; also recorded: significantly abrogate
- level of phagocytosis (E0771-E2 cells [9]; SSI-4 1000 nM): 13%
- SSI-4 induced phagocytosis with adjuvant CRT neutralization (TUBO cells [10]; CRT blocking antibody): reversed; also recorded: significantly abrogate
- level of phagocytosis (TUBO cells [10]; SSI-4 1000 nM): 5%
